Measurements as given in patent US4352803A, “Novel naphthyridine derivatives, intermediates thereof, processes for preparation thereof, and use thereof” (Dainippon Pharmaceutical Co., Ltd., priority 1978, dated 1982).
Converted amounts (≈) assume the structure as drawn. Where two headings read alike, the source gives them in different places.

How the values were obtained:
Escherichia coli P-5101 [1] = test: In vitro antibacterial activity (MIC), Escherichia coli P-5101; format: cell-based
Source text: (§1) (MIC) (μg/ml) Method; Chemotherapy, 22(6), 1126 (1974)

Shigella flexneri 2a = test: In vitro antibacterial activity (MIC), Shigella flexneri 2a; format: cell-based; conditions: read-out: minimum inhibitory concentration (MIC)
Source text: as §1

Proteus mirabilis P-2381 = test: In vitro antibacterial activity (MIC), Proteus mirabilis P-2381; format: cell-based
Source text: as §1

[2] = system: Streptococcus pyogenes 65A; test: In vitro antibacterial activity (MIC), Streptococcus pyogenes 65A; format: cell-based; conditions: read-out: minimum inhibitory concentration (MIC)
Source text: as §1

in vivo = conditions: for LD50 at 168 h: mouse, in vivo, po
Procedure: The number of dead mice was counted after 7 days, and the value of median lethal dose (LD50, mg/kg) was calculated in accordance with the Behrens-Kaerber method.

[3] = system: Gram-positive bacteria and Gram-negative bacteria; test: In vitro antibacterial activity against 19 strains of bacteria (overall); format: cell-based; conditions: comparisons are with compounds of the invention
Source text: as §1

[4] = system: Staphylococcus aureus No. 50774; test: In vitro antibacterial activity (MIC), Staphylococcus aureus No. 50774; format: cell-based
Source text: as §1

[5] = system: Pseudomonas aeruginosa Tsuchijima; test: In vitro antibacterial activity (MIC), Pseudomonas aeruginosa Tsuchijima; format: cell-based; conditions: read-out: minimum inhibitory concentration (MIC)
Source text: as §1

[6] = system: Shigella flexneri 4a P-330; test: In vitro antibacterial activity (MIC), Shigella flexneri 4a P-330; format: cell-based; conditions: 4AP330, read-out: minimum inhibitory concentration (MIC)
Source text: as §1

[7] = system: Klebsiella pneumoniae No. 13; test: In vitro antibacterial activity (MIC), Klebsiella pneumoniae No. 13; format: cell-based; conditions: Klebsiella pneumoniae No. 13; read-out: minimum inhibitory concentration (MIC)
Source text: as §1

[8] = system: Serratia marcescens IFC 3736; test: In vitro antibacterial activity (MIC), Serratia marcescens IFC 3736; format: cell-based; conditions: IFC3736; Serratia marcescens IFC 3736; read-out: minimum inhibitory concentration (MIC)
Source text: as §1

[9] = system: Salmonella typhimurium 8-9; test: In vitro antibacterial activity (MIC), Salmonella typhimurium 8-9; format: cell-based; conditions: Salmonella enterica, read-out: minimum inhibitory concentration (MIC)
Source text: as §1

Proteus morganii Kono = test: In vitro antibacterial activity (MIC), Proteus morganii Kono; format: cell-based; conditions: Morganella morganii, read-out: minimum inhibitory concentration (MIC)
Source text: as §1

[10] = system: Pseudomonas aeruginosa No. 12; test: in vivo efficacy against systemic infection in mice, Pseudomonas aeruginosa No. 12; conditions: NO.12, in Mus musculus, po, 168 h
Procedure: Male mice (ddY) weighing about 20 g
(3) Pseudomonas aeruginosa No. 12;
(about 5 × 10^3 cells/mouse) of a bacterial
(§2) suspension in trypto-soy broth with 4% mucin.
(§3) Twice, about 5 minutes and 6 hours after infection.
The numerals in the table show ED50 (mg/kg). ED50 values were

[11] = system: Staphylococcus aureus 209P JC-1; test: In vitro antibacterial activity (MIC), Staphylococcus aureus 209P JC-1; format: cell-based; conditions: Staphylococcus aureus 209P JC-1; read-out: minimum inhibitory concentration (MIC)
Source text: as §1

[12] = system: Escherichia coli NIHJ JC-2; test: In vitro antibacterial activity (MIC), Escherichia coli NIHJ JC-2; format: cell-based; conditions: Escherichia coli, NIHJJC2, read-out: minimum inhibitory concentration (MIC)
Source text: as §1

[13] = system: Corynebacterium pyogenes C-21; test: In vitro antibacterial activity (MIC), Corynebacterium pyogenes C-21; format: cell-based; conditions: Rhodococcus (subgen. Prescottella) equi, C21; Corynebacterium pyogenes C-21; read-out: minimum inhibitory concentration (MIC)
Source text: as §1

[14] = system: Streptococcus faecalis P-2473; test: In vitro antibacterial activity (MIC), Streptococcus faecalis P-2473; format: cell-based; conditions: Enterococcus faecalis, P2473; Streptococcus faecalis P-2473; read-out: minimum inhibitory concentration (MIC)
Source text: as §1

[15] = system: Salmonella enteritidis No. 1891; test: In vitro antibacterial activity (MIC), Salmonella enteritidis No. 1891; format: cell-based; conditions: Salmonella enterica, read-out: minimum inhibitory concentration (MIC)
Source text: as §1

[16] = system: Pseudomonas aeruginosa No. 12; test: In vitro antibacterial activity (MIC), Pseudomonas aeruginosa No. 12; format: cell-based
Source text: as §1

Escherichia coli P-5101 [17] = test: in vivo efficacy against systemic infection in mice, Escherichia coli P-5101; conditions: P5101, in Mus musculus, po, 168 h
Procedure: Male mice (ddY) weighing about 20 g
Intraperitoneal infection with (about
9 × 10^6 cells/mouse) of a bacterial
as §2, §3

Escherichia coli P-140a = test: In vitro antibacterial activity (MIC), Escherichia coli P-140a; format: cell-based; conditions: read-out: minimum inhibitory concentration (MIC)
Source text: as §1

[18] = system: Enterobacter cloacae P-2540; test: In vitro antibacterial activity (MIC), Enterobacter cloacae P-2540; format: cell-based
Source text: as §1

[19] = system: Staphylococcus aureus No. 50774; test: in vivo efficacy against systemic infection in mice, Staphylococcus aureus No. 50774; conditions: NO.50774, in Mus musculus, po, 336 h
Procedure: Male mice (ddY) weighing about 20 g
Intravenous infection with (about
5 × 10^8 cells/mouse) of a bacterial
as §3

[20] = system: Gram-positive and Gram-negative bacteria; test: in vivo therapeutic efficacy against systemic infections in mice (overall); set-up: species or system mice (ddY)
[21] = Staphylococcus aureus No. 50774, read-out: minimum inhibitory concentration (MIC)
[22] = Pseudomonas aeruginosa Tsuchijima
[23] = Pseudomonas aeruginosa No. 12, read-out: minimum inhibitory concentration (MIC)
[24] = P2540, Enterobacter cloacae P-2540, read-out: minimum inhibitory concentration (MIC)
[25] = Escherichia coli, P5101, read-out: minimum inhibitory concentration (MIC)
[26] = Proteus mirabilis, P2381, read-out: minimum inhibitory concentration (MIC)

Row | Structure (SMILES) | MIC (Shigella flexneri 2a) [µg/mL] | MIC ([2]; Streptococcus pyogenes 65A) [µg/mL] | LD50 at 168 h (in vivo) [mg/kg] | antibacterial activity (in words) [3] | MIC [4, 21] [µg/mL] | MIC [5, 22] [µg/mL] | MIC [6] [µg/mL] | MIC [7] [µg/mL] | MIC [8] [µg/mL] | MIC ([9]; Salmonella typhimurium 8-9) [µg/mL] | MIC (Proteus morganii Kono) [µg/mL] | ED50 [10] [mg/kg] | MIC [11] [µg/mL] | MIC [12] [µg/mL] | MIC [13] [µg/mL] | MIC [14] [µg/mL] | MIC ([15]; ENTERITIDIS) [µg/mL] | MIC [16, 23] [µg/mL] | ED50 (Escherichia coli P-5101 [17]) [mg/kg] | ED50 [19] [mg/kg] | other results
1 | CCn1cc(C(=O)O)c(=O)c2cc(F)c(N3CCN(C)CC3)nc21 [Compound B, 1-Ethyl-6-fluoro-1,4-dihydro-7-(4-methyl-1-piperazinyl)-4-oxo-1,8-naphthyridine-3-carboxylic acid] | 0.39 (≈ 1.17 µM) | 6.25 (≈ 18.7 µM) | 210 | equivalent or higher antibacterial activity | 1.56 (≈ 4.67 µM) | 1.56 (≈ 4.67 µM) | 0.78 (≈ 2.33 µM) | 0.39 (≈ 1.17 µM) | 1.56 (≈ 4.67 µM) | 0.2 (≈ 0.598 µM) | 0.78 (≈ 2.33 µM) | 10.6 | 1.56 (≈ 4.67 µM) | 0.39 (≈ 1.17 µM) | 1.56 (≈ 4.67 µM) | 12.5 (≈ 37.4 µM) | 0.1 (≈ 0.299 µM) | 3.13 (≈ 9.36 µM) | 1.2 | 4.8 | MIC (Escherichia coli P-5101 [1]; P5101, Escherichia coli P-5101, read-out: minimum inhibitory concentration (MIC)): 0.2 µg/mL (≈ 0.598 µM); MIC (Proteus mirabilis P-2381; P2381, Proteus mirabilis P-2381, read-out: minimum inhibitory concentration (MIC)): 1.56 µg/mL (≈ 4.67 µM); toxicity (in words) (in vivo; acute, oral, mice): extremely high toxicity; MIC (Escherichia coli P-140a; Escherichia coli): 0.39 µg/mL (≈ 1.17 µM); MIC [18, 24]: 0.39 µg/mL (≈ 1.17 µM)
2 | CCn1cc(C(=O)O)c(=O)c2cc(Cl)c(N3CCNCC3)cc21 [Compound C, 6-Chloro-1-ethyl-1,4-dihydro-4-oxo-7-(1-piperazinyl)quinoline-3-carboxylic acid] | 0.39 (≈ 1.16 µM) | – | > 2000 | clearly inferior | – | 3.13 (≈ 9.32 µM) | 0.2 (≈ 0.596 µM) | 0.78 (≈ 2.32 µM) | 0.78 (≈ 2.32 µM) | – | 0.39 (≈ 1.16 µM) | > 100 | 0.78 (≈ 2.32 µM) | 0.39 (≈ 1.16 µM) | 1.56 (≈ 4.65 µM) | 6.25 (≈ 18.6 µM) | 0.2 (≈ 0.596 µM) | 3.13 (≈ 9.32 µM) | ~15 | ~100 | MIC (Escherichia coli P-5101 [1]; [25]): 0.2 µg/mL (≈ 0.596 µM); MIC (Proteus mirabilis P-2381; [26]): 0.39 µg/mL (≈ 1.16 µM); MIC ([2]; Streptococcus pyogenes, 65A): 6.25 µg/mL (≈ 18.6 µM); MIC ([4]; Staphylococcus aureus, NO.50774, read-out: minimum inhibitory concentration (MIC)): 1.56 µg/mL (≈ 4.65 µM); MIC ([9]; TYPHIMURIUM): 0.2 µg/mL (≈ 0.596 µM); therapeutic effect / in vivo antibacterial activity (in words) ([20]; systemic infections with Gram-positive and Gram-negative bacteria): clearly inferior; MIC (Escherichia coli P-140a; Escherichia coli): 0.2 µg/mL (≈ 0.596 µM); MIC ([18]; Enterobacter cloacae, P2540, read-out: minimum inhibitory concentration (MIC)): 0.2 µg/mL (≈ 0.596 µM)
3 | CC1(C)S[C@@H]2[C@H](NC(=O)[C@H](N)c3ccccc3)C(=O)N2[C@H]1C(=O)O [H, D-α-Aminobenzylpenicillin] | 3.13 (≈ 8.96 µM) | 0.025 (≈ 0.0715 µM) | > 5000 | – | 0.1 (≈ 0.286 µM) | – | 6.25 (≈ 17.9 µM) | 100 (≈ 286 µM) | 25 (≈ 71.5 µM) | 0.39 (≈ 1.12 µM) | – | > 400 | 0.05 (≈ 0.143 µM) | 6.25 (≈ 17.9 µM) | 1.56 (≈ 4.46 µM) | 1.56 (≈ 4.46 µM) | – | – | 43.5 | 2.2 | MIC (Escherichia coli P-5101 [1]; [25]): 6.25 µg/mL (≈ 17.9 µM); MIC (Proteus mirabilis P-2381; [26]): 3.13 µg/mL (≈ 8.96 µM); MIC ([5]; Pseudomonas aeruginosa): > 200 µg/mL; MIC (Proteus morganii Kono; Proteus morganii Kono): 100 µg/mL (≈ 286 µM); therapeutic effects in vivo against Gram-negative bacteria, relative to compounds 1, 1' and 2 ([20]; Gram-negative, particularly Pseudomonas aeruginosa): clearly inferior; MIC ([15]; Salmonella enteritidis No. 1891): 0.2 µg/mL (≈ 0.572 µM); MIC ([16]; Pseudomonas aeruginosa, NO.12, read-out: minimum inhibitory concentration (MIC)): > 200 µg/mL; MIC (Escherichia coli P-140a; P140A, Escherichia coli P-140a): 200 µg/mL (≈ 572 µM); MIC [18, 24]: > 200 µg/mL
